Results as given in PubChem BioAssay AID2060599 (Molecular Pharmacology Branch, DTP, NCI, 2025).

Test system: 817829-284-R-J1-PDC complex spheroids, viability
Assay: Anticancer human tumor 817829-284-R-J1-PDC patient-derived colon adenocarcinoma cell line growth inhibition [CLK]
Details: for IC50: curve of first compound; for viability, T/C: stronger effect = lower value; active means viability on the fitted dose curve at most 10% of control; inactive means the rest
Text: A high-throughput screen of multi-cell type tumor spheroids was designed to identify active combinations of […] and targeted small molecules. Complex spheroids include a stromal component modeled by human endothelial cells (HUVEC) and fibroblasts modeled by human mesenchymal stem cells (MSCs). The concentration ranges selected for each drug and investigational agent were based upon clinically achievable concentrations if the clinical Cmax of the agent was known.
Compounds. The drugs and investigational agents: cirtuvivint (SM08502; NSC835563), CC-671 (NSC850746), vemurafenib (NSC761431), tapotoclax (NSC804041), sotorasib (NSC818433), adagrasib (NSC831453), MRTX-1133 (NSC836407), BAY2416964 (NSC825713), copanlisib (NSC816437), inavolisib (NSC800729), abemaciclib (NSC768073), osimertinib (NSC779217), entinostat (NSC756642), eltanexor (KPT-8602, NSC794443), venetoclax (NSC766270), ceralasertib (NSC777638), bortezomib (NSC756655), olaparib (NSC753686), talazoparib (NSC767125), alisertib (NSC759677), peposertib (NSC802822), gemcitabine (NSC613327), 5-fluorouracil (NSC19893), SN-38 (NSC673596), oxaliplatin (NSC266046), paclitaxel (NSC125973), and doxorubicin (NSC123127), were obtained from the National Cancer Institute (NCI) Developmental Therapeutics Program Chemical Repository. The FDA-approved anticancer drug set is available from the Developmental Therapeutics Program at https://dtp.cancer.gov/organization/dscb/obtaining/available plates.htm. […] The stock solutions were prepared in dimethyl sulfoxide (DMSO, Sigma-Aldrich, St. Louis, MO, cat. D2650), except for the platinum complexes which were prepared in saline (Quality Biological, Gaithersburg, MD, cat. 114-055-101), at 800-fold the tested concentration and stored at -70 degrees C prior to their use. All drugs and investigational agents were tested over a range starting from a high concentration at or near the clinical Cmax and decreasing in half-log increments. If the clinical Cmax for an agent had not been determined, the highest concentration tested was 10 microM.
Cell Culture. All cells were maintained in an incubator at 37 degrees C and 5% CO2 with 95% humidity. The PDC lines were cultured according to standard operating procedures established by the NCI PDMR. Briefly, all PDCs were thawed and cultured in Matrigel-coated flasks prepared with a working solution of 1X Ham's F-12 nutrient mix, without supplementation (Invitrogen, Waltham, MA, cat. 11765054), 100 U/mL penicillin-streptomycin (Invitrogen, cat. 15140122), and 2.5% Matrigel (Corning Inc., Corning, NY, cat. 354248) for the first three passages. The 947758-054-R-J2-PDC line was cultured in 6B/Colon 1A media, which includes advanced DMEM/F-12 (Thermo Fisher Scientific, cat. 12634028), 10 mM HEPES (Thermo Fisher Scientific, cat. 15630080), 1X GlutaMAX supplement (Thermo Fisher Scientific, cat. 35050061), 0.1 mg/mL primocin (InvivoGen, cat. ant-pm-2), 10% defined fetal bovine serum, heat inactivated (HyClone Laboratories Inc., cat. SH30070.03HI), 1.25 mM N-Acetyl-L-cysteine (Sigma-Aldrich, cat. A9165), 10 mM nicotinamide (Sigma-Aldrich, cat. N0636), 1X B-27 supplement (Thermo Fisher Scientific, cat. 17504044), 1X N-2 supplement (Thermo Fisher Scientific, cat. 17502048), and 10 microM Y-27632 dihydrochloride (Tocris Bioscience, cat. 1254). The 876862-298-R-J1-PDC was cultured in 6E media, which includes all 6B/Colon 1A media components plus 50% L-WRN conditioned media (ATCC, cat. CRL-3276), 50 ng/mL recombinant human EGF recombinant protein (hEGF; Thermo Fisher Scientific, cat. PHG0311), 10 ng/mL recombinant human fibroblast growth factor 10 (hGFG-10; PeproTech, cat. 100-26), 1 ng/mL recombinant human fibroblast growth factor 2 (hFGF-2; PeproTech, cat. 100-18B), and 1 µM prostaglandin E2 (PGE2; Tocris, cat. 2296). The 227483-062-R1-J1-PDC line was cultured in Panc media, containing all 6E components except hFGF-2, with the addition of 500 nM SB-431542 (Selleckchem, cat. S1067) and 10 nM gastrin (Tocris, cat. 3006). […]

[1] = second compound 0.0316 µM, first compound 0.0316 µM
[2] = second compound 0.0316 µM, first compound 0.1 µM
[3] = second compound 0.0316 µM, first compound 0.316 µM
[4] = second compound 0.0316 µM, first compound 1 µM
[5] = second compound 0.1 µM, first compound 0.0316 µM
[6] = second compound 0.1 µM, first compound 0.1 µM
[7] = second compound 0.1 µM, first compound 0.316 µM
[8] = second compound 0.1 µM, first compound 1 µM
[9] = second compound 0.316 µM, first compound 0.0316 µM
[10] = second compound 0.316 µM, first compound 0.1 µM
[11] = second compound 0.316 µM, first compound 0.316 µM
[12] = second compound 0.316 µM, first compound 1 µM
[13] = second compound 1 µM, first compound 0.0316 µM
[14] = second compound 1 µM, first compound 0.1 µM
[15] = second compound 1 µM, first compound 0.316 µM
[16] = second compound 1 µM, first compound 1 µM
[17] = second compound 3.16 µM, first compound 0.0316 µM
[18] = second compound 3.16 µM, first compound 0.1 µM
[19] = second compound 3.16 µM, first compound 0.316 µM
[20] = second compound 3.16 µM, first compound 1 µM
[21] = second compound 10 µM, first compound 0.0316 µM
[22] = second compound 10 µM, first compound 0.1 µM
[23] = second compound 10 µM, first compound 0.316 µM
[24] = second compound 10 µM, first compound 1 µM
[25] = second compound 0.0316 µM, first compound 0.00316 µM
[26] = second compound 0.0316 µM, first compound 0.01 µM
[27] = second compound 0.1 µM, first compound 0.00316 µM
[28] = second compound 0.1 µM, first compound 0.01 µM
[29] = second compound 0.316 µM, first compound 0.00316 µM
[30] = second compound 0.316 µM, first compound 0.01 µM
[31] = second compound 1 µM, first compound 0.00316 µM
[32] = second compound 1 µM, first compound 0.01 µM
[33] = second compound 3.16 µM, first compound 0.00316 µM
[34] = second compound 3.16 µM, first compound 0.01 µM
[35] = second compound 10 µM, first compound 0.00316 µM
[36] = second compound 10 µM, first compound 0.01 µM
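Further: spheroids exposed to the agents for seven days before readout.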

CC(Nc1ccc2c(c1)OCCn1cc(N3C(=O)OCC3C(F)F)nc1-2)C(N)=O (stereo unspecified) + CN1CCN(c2cc(C(=O)Nc3cc4cc(-c5cnn(C)c5)ccc4cn3)ccn2)CC1
< 31.6 nM: IC50 (second compound 0.1 µM) | IC50 (second compound 0.316 µM) | IC50 (second compound 1 µM) | IC50 (second compound 3.16 µM) | IC50 (second compound 10 µM)
active: viability, T/C [9] 1.57% | viability, T/C [10] 1.34% | viability, T/C [11] 0.89% | viability, T/C [12] 0.83% | viability, T/C (second compound 0.316 µM, first compound 3.16 µM) 0.72% | viability, T/C (second compound 0.316 µM, first compound 10 µM) 0.96% | viability, T/C [13] 0.08% | viability, T/C [14] 0.11% | viability, T/C [15] 0.12% | viability, T/C [16] 0.07% | viability, T/C (second compound 1 µM, first compound 3.16 µM) 0.09% | viability, T/C (second compound 1 µM, first compound 10 µM) 0.11% | viability, T/C [17] 0.12% | viability, T/C [18] 0.15% | viability, T/C [19] 0.15% | viability, T/C [20] 0.15% | viability, T/C (second compound 3.16 µM, first compound 3.16 µM) 0.17% | viability, T/C (second compound 3.16 µM, first compound 10 µM) 0.14% | viability, T/C [21] 0.07% | viability, T/C [22] 0.08% | viability, T/C [23] 0.13% | viability, T/C [24] 0.11% | viability, T/C (second compound 10 µM, first compound 3.16 µM) 0.24% | viability, T/C (second compound 10 µM, first compound 10 µM) 0.14%
3240 nM: IC50 (second compound 0.0316 µM)
inactive: viability, T/C [1] 53.4% | viability, T/C [2] 55.5% | viability, T/C [3] 56.8% | viability, T/C [4] 48.1% | viability, T/C (second compound 0.0316 µM, first compound 3.16 µM) 51.4% | viability, T/C (second compound 0.0316 µM, first compound 10 µM) 22.9% | viability, T/C [5] 20.4% | viability, T/C [6] 19.2% | viability, T/C [7] 17% | viability, T/C [8] 16.8% | viability, T/C (second compound 0.1 µM, first compound 3.16 µM) 14.3% | viability, T/C (second compound 0.1 µM, first compound 10 µM) 10.7%

CCN1CCN(Cc2ccc(Nc3ncc(F)c(-c4cc(F)c5nc(C)n(C(C)C)c5c4)n3)nc2)CC1 + CN1CCN(c2cc(C(=O)Nc3cc4cc(-c5cnn(C)c5)ccc4cn3)ccn2)CC1
active: viability, T/C [29] 1.34% | viability, T/C [30] 1.6% | viability, T/C [9] 1.6% | viability, T/C [10] 1.6% | viability, T/C [11] 2.31% | viability, T/C [12] 0.61% | viability, T/C [31] 0.17% | viability, T/C [32] 0.12% | viability, T/C [13] 0.08% | viability, T/C [14] 0.08% | viability, T/C [15] 0.1% | viability, T/C [16] 0.19% | viability, T/C [33] 0.13% | viability, T/C [34] 0.14% | viability, T/C [17] 0.12% | viability, T/C [18] 0.15% | viability, T/C [19] 0.12% | viability, T/C [20] 0.1% | viability, T/C [35] 0.09% | viability, T/C [36] 0.1% | viability, T/C [21] 0.08% | viability, T/C [22] 0.09% | viability, T/C [23] 0.11% | viability, T/C [24] 0.08%
21.1 nM: IC50 (second compound 0.0316 µM)
inactive: viability, T/C [25] 49.6% | viability, T/C [26] 64.4% | viability, T/C [1] 46.2% | viability, T/C [2] 36.6% | viability, T/C [3] 36.9% | viability, T/C [4] 29.2% | viability, T/C [27] 17.4% | viability, T/C [28] 16.2% | viability, T/C [5] 15.4% | viability, T/C [6] 20.7% | viability, T/C [7] 18.7% | viability, T/C [8] 11.8%
< 3.16 nM: IC50 (second compound 0.1 µM) | IC50 (second compound 0.316 µM) | IC50 (second compound 1 µM) | IC50 (second compound 3.16 µM) | IC50 (second compound 10 µM)

COc1c(OCCCN2CCOCC2)ccc2c3n(c(=NC(=O)c4cnc(N)nc4)nc12)CCN3 + CN1CCN(c2cc(C(=O)Nc3cc4cc(-c5cnn(C)c5)ccc4cn3)ccn2)CC1
active: viability, T/C [3] 3.82% | viability, T/C [4] 1.54% | viability, T/C [6] 6.91% | viability, T/C [7] 1.95% | viability, T/C [8] 1.19% | viability, T/C [29] 1.52% | viability, T/C [30] 1.2% | viability, T/C [9] 0.85% | viability, T/C [10] 0.73% | viability, T/C [11] 0.56% | viability, T/C [12] 0.47% | viability, T/C [31] 0.08% | viability, T/C [32] 0.11% | viability, T/C [13] 0.12% | viability, T/C [14] 0.12% | viability, T/C [15] 0.11% | viability, T/C [16] 0.34% | viability, T/C [33] 0.17% | viability, T/C [34] 0.13% | viability, T/C [17] 0.13% | viability, T/C [18] 0.09% | viability, T/C [19] 0.17% | viability, T/C [20] 0.17% | viability, T/C [35] 0.03% | viability, T/C [36] 0.06% | viability, T/C [21] 0.1% | viability, T/C [22] 0.56% | viability, T/C [23] 0.13% | viability, T/C [24] 0.12%
8.9 nM: IC50 (second compound 0.0316 µM)
< 3.16 nM: IC50 (second compound 0.1 µM) | IC50 (second compound 0.316 µM) | IC50 (second compound 1 µM) | IC50 (second compound 3.16 µM) | IC50 (second compound 10 µM)
inactive: viability, T/C [25] 52.3% | viability, T/C [26] 51.3% | viability, T/C [1] 33.9% | viability, T/C [2] 13.7% | viability, T/C [27] 20.9% | viability, T/C [28] 17.7% | viability, T/C [5] 11.5%
